Measured values reported in patent US10370338B2, “Benzazepine dicarboxamide compounds with tertiary amide function” (Hoffmann-La Roche Inc., priority 2016, dated 2019).

How the values were obtained:
human TLR7 = human TLR7 (Homo sapiens (Human), UniProt Q9NYK1); test: HEK-Blue human TLR7 cells NF-κB SEAP reporter assay; assay type: cell-based; conditions: stimulation for 20 hours
From the text: (§1) For TLR8 and TLR7 activity testing, HEK-Blue human TLR8 or TLR7 cells (Invivogen, San Diego, Calif., USA) are used, respectively. These cells are designed for studying the stimulation of human TLR8 or TLR7 by monitoring the activation of NF-κB. A SEAP (secreted embryonic alkaline phosphatase) reporter gene is placed under the control of the IFN-b minimal promoter fused to five NF-κB and AP-1-binding sites. Therefore the reporter expression is regulated by the NF-κB promoter upon stimulation of human TLR8 or TLR7 for 20 hours. The cell culture supernatant SEAP reporter activity was determined using Quanti Blue kit (Invivogen, San Diego, Ca, USA) at a wavelength of 640 nm, a detection medium that turns purple/blue in the presence of alkaline phosphatase. EC50 values were determined using Activity Base analysis (ID Business Solution, Limited).

human TLR8 = human TLR8 (Homo sapiens (Human), UniProt Q9NR97); test: HEK-Blue human TLR8 cells NF-κB SEAP reporter assay; assay type: cell-based; conditions: stimulation for 20 hours
Chain of human TLR8 (Q9NR97 27-1041): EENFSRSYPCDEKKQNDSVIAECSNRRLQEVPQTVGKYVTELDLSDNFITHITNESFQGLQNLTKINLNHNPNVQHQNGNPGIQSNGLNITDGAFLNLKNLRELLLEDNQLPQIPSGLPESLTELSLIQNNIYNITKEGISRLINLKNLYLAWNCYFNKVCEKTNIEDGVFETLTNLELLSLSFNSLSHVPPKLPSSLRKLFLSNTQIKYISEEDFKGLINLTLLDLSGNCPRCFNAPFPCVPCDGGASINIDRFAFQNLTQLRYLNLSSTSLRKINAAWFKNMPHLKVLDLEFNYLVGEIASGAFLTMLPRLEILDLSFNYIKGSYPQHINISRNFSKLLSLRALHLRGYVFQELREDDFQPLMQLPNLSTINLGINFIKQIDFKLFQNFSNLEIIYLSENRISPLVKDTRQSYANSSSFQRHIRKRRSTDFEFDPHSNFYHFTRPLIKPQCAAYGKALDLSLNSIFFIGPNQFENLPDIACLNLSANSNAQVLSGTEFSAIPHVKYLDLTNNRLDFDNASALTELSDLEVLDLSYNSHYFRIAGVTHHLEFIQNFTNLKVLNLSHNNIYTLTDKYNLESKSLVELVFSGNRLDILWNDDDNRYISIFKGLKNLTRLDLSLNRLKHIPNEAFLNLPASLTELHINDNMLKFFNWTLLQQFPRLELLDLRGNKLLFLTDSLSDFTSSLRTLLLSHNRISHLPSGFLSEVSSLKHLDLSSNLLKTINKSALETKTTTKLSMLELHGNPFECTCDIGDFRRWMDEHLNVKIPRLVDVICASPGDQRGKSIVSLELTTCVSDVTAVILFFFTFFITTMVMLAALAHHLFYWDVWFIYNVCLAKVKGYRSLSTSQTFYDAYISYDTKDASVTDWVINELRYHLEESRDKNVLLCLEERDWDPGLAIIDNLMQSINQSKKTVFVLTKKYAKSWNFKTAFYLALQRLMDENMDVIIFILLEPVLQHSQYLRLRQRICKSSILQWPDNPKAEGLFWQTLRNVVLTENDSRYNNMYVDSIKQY
From the text: as §1

Chain of human TLR7 (Q9NYK1 27-1049): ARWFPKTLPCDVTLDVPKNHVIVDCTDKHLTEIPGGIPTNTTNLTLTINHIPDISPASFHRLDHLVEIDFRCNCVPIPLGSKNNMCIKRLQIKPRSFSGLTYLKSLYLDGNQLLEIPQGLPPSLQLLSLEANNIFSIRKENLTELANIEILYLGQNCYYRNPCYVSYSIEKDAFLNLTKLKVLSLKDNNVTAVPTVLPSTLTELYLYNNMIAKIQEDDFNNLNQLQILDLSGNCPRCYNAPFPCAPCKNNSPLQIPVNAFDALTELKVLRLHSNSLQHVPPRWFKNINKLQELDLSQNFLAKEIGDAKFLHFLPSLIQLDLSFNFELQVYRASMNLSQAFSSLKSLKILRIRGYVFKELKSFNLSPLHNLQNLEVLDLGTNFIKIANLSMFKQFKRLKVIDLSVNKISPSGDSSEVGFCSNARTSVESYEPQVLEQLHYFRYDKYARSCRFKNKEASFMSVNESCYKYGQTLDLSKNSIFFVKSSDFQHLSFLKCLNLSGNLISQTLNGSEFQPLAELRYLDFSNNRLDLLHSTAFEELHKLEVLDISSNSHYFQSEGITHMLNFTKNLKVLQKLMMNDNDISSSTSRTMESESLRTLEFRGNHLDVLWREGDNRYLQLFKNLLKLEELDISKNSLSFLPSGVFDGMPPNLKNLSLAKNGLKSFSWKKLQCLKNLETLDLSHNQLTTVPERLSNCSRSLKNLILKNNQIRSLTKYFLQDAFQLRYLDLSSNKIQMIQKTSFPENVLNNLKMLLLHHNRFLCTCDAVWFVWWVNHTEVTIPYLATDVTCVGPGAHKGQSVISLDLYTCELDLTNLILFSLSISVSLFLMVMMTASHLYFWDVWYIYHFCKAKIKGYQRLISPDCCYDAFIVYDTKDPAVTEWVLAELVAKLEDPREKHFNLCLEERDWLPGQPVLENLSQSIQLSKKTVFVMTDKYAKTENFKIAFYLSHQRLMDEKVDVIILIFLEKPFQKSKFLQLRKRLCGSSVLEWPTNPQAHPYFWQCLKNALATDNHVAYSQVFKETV

| SMILES | EC50 (human TLR7) [nM] | EC50 (human TLR8) [nM] |
| --- | --- | --- |
| CCCN(CCC)C(=O)C1=Cc2ccc(C(=O)N3CC4(CCN(c5ccccc5)CC4)C3)cc2N=C(N)C1 [Example 14, 2-Amino-8-(7-phenyl-2,7-diazaspiro[3.5]nonane-2-carbonyl)-N,N-dipropyl-3H-1-benzazepine-4-carboxamide] | 33000 | 9 |
| CCCN(CCC)C(=O)C1=Cc2ccc(C(=O)N3CC4CC(C3)N4c3ccccc3)cc2N=C(N)C1 [Example 12, 2-Amino-8-(6-phenyl-3,6-diazabicyclo[3.1.1]heptane-3-carbonyl)-N,N-dipropyl-3H-1-benzazepine-4-carboxamide] | 11000 | 22 |
| CCCN(CCC)C(=O)C1=Cc2ccc(C(=O)N3CCC(NCc4ccccc4)C3)cc2N=C(N)C1 (stereo not drawn) [Example 19, 2-Amino-8-[3-(benzylamino)pyrrolidine-1-carbonyl]-N,N-dipropyl-3H-1-benzazepine-4-carboxamide] | 6600 | 14 |
| CCCN(CCC)C(=O)C1=Cc2ccc(C(=O)N3CCCC3)cc2N=C(N)C1 [Example 8, 2-Amino-N,N-dipropyl-8-(pyrrolidine-1-carbonyl)-3H-1-benzazepine-4-carboxamide] | 21000 | 15 |
| C/C=C/COC1CN(C(=O)c2ccc3c(c2)N=C(N)CC(C(=O)N(CCC)CCC)=C3)C1 [Example 22, 2-Amino-8-[3-[(E)-but-2-enoxy]azetidine-1-carbonyl]-N,N-dipropyl-3H-1-benzazepine-4-carboxamide] | 32000 | 12 |
| CCCN(CCC)C(=O)C1=Cc2ccc(C(=O)N3CC(Nc4ccccc4)C3)cc2N=C(N)C1 [Example 3, 2-Amino-8-(3-anilinoazetidine-1-carbonyl)-N,N-dipropyl-3H-1-benzazepine-4-carboxamide] | 24000 | 5 |
| CCCN(CCC)C(=O)C1=Cc2ccc(C(=O)N3CC4(CCN(c5ccccc5)C4)C3)cc2N=C(N)C1 [Example 7, 2-Amino-8-(7-phenyl-2,7-diazaspiro[3.4]octane-2-carbonyl)-N,N-dipropyl-3H-1-benzazepine-4-carboxamide] | > 100000 | 10 |
| CCCN(CC1CC1)C(=O)C1=Cc2ccc(C(=O)N3CCC(Nc4ccccc4)CC3)cc2N=C(N)C1 [Example 9, 2-Amino-8-(4-anilinopiperidine-1-carbonyl)-N-(cyclopropylmethyl)-N-propyl-3H-1-benzazepine-4-carboxamide] | 18000 | 20 |
| CCCN(CCC)C(=O)C1=Cc2ccc(C(=O)N3CCN(Cc4ccccc4)CC3)cc2N=C(N)C1 [Example 10, 2-Amino-8-(4-benzylpiperazine-1-carbonyl)-N,N-dipropyl-3H-1-benzazepine-4-carboxamide] | 14000 | 5 |
| CCCN(CCC)C(=O)C1=Cc2ccc(C(=O)N3CCC(CNc4ccccc4)CC3)cc2N=C(N)C1 [Example 20, 2-amino-8-[4-(anilinomethyl)piperidine-1-carbonyl]-N,N-dipropyl-3H-1-benzazepine-4-carboxamide] | 10000 | 20 |
| CCCN(CCC)C(=O)C1=Cc2ccc(C(=O)N3CCCC(Nc4ccccc4)C3)cc2N=C(N)C1 (stereo not drawn) [Example 23, 2-Amino-8-(3-anilinopiperidine-1-carbonyl)-N,N-dipropyl-3H-1-benzazepine-4-carboxamide] | 400 | 8 |
| CCCN(CCC)C(=O)C1=Cc2ccc(C(=O)N3CCC(Nc4ccc(CN)cc4)C3)cc2N=C(N)C1 (stereo not drawn) [Example 18, 2-Amino-8-[3-[4-(aminomethyl)anilino]pyrrolidine-1-carbonyl]-N,N-dipropyl-3H-1-benzazepine-4-carboxamide] | > 100000 | 31 |
| CCCN(CCC)C(=O)C1=Cc2ccc(C(=O)N3CC4CN(c5ccccc5)C4C3)cc2N=C(N)C1 (stereo not drawn) [Example 16, 2-Amino-8-(6-phenyl-3,6-diazabicyclo[3.2.0]heptane-3-carbonyl)-N,N-dipropyl-3H-1-benzazepine-4-carboxamide] | 12000 | 29 |
| CCCN(CCC)C(=O)C1=Cc2ccc(C(=O)N3CCC4(CC3)CN(c3ccccc3)C4)cc2N=C(N)C1 [Example 13, 2-Amino-8-(2-phenyl-2,7-diazaspiro[3.5]nonane-7-carbonyl)-N,N-dipropyl-3H-1-benzazepine-4-carboxamide] | > 100000 | 7 |
| CCCN(CCC)C(=O)C1=Cc2ccc(C(=O)N3CCCC(NCc4ccccc4)C3)cc2N=C(N)C1 (stereo not drawn) [Example 24, 2-Amino-8-[3-(benzylamino)piperidine-1-carbonyl]-N,N-dipropyl-3H-1-benzazepine-4-carboxamide] | 3100 | 14 |
| CCCN(CCC)C(=O)C1=Cc2ccc(C(=O)N3CC(CNc4ccccc4)C3)cc2N=C(N)C1 [Example 4, 2-Amino-8-[3-(anilinomethyl)azetidine-1-carbonyl]-N,N-dipropyl-3H-1-benzazepine-4-carboxamide] | 10000 | 10 |
| CCCN(CCC)C(=O)C1=Cc2ccc(C(=O)N3CC4(C3)CN(c3ccc(C)cc3)C4)cc2N=C(N)C1 [Example 1, 2-Amino-N,N-dipropyl-8-[6-(p-tolyl)-2,6-diazaspiro[3.3]heptane-2-carbonyl]-3H-1-benzazepine-4-carboxamide] | > 100000 | 5 |
| CCCN(CCC)C(=O)C1=Cc2ccc(C(=O)N3CCC(Nc4ccccc4)C3)cc2N=C(N)C1 (stereo not drawn) [Example 5, 2-Amino-8-(3-anilinopyrrolidine-1-carbonyl)-N,N-dipropyl-3H-1-benzazepine-4-carboxamide] | 14000 | 4 |
| CCCN(CCC)C(=O)C1=Cc2ccc(C(=O)N3CCN(c4ccccc4)CC3)cc2N=C(N)C1 [Example 6, 2-Amino-8-(4-phenylpiperazine-1-carbonyl)-N,N-dipropyl-3H-1-benzazepine-4-carboxamide] | 9000 | 25 |
| CCCN(CCC)C(=O)C1=Cc2ccc(C(=O)N3CCC(CNc4ccccc4)C3)cc2N=C(N)C1 (stereo not drawn) [Example 21, 2-Amino-8-[3-(anilinomethyl)pyrrolidine-1-carbonyl]-N,N-dipropyl-3H-1-benzazepine-4-carboxamide] | 6980 | 9 |
| CCCCOC1CN(C(=O)c2ccc3c(c2)N=C(N)CC(C(=O)N(CCC)CCC)=C3)C1 [Example 25, 2-Amino-8-(3-butoxyazetidine-1-carbonyl)-N,N-dipropyl-3H-1-benzazepine-4-carboxamide] | 31100 | 8 |
| CCCN(CCC)C(=O)C1=Cc2ccc(C(=O)N3CCC(Nc4ccccc4)CC3)cc2N=C(N)C1 [Example 2, 2-Amino-8-(4-anilinopiperidine-1-carbonyl)-N,N-dipropyl-3H-1-benzazepine-4-carboxamide] | 7900 | 6 |
| CCCN(CCC)C(=O)C1=Cc2ccc(C(=O)N3CC4CCC(C3)N4c3ccccc3)cc2N=C(N)C1 [Example 15, 2-Amino-8-(8-phenyl-3,8-diazabicyclo[3.2.1]octane-3-carbonyl)-N,N-dipropyl-3H-1-benzazepine-4-carboxamide] | 16000 | 10 |
| CCCN(CCC)C(=O)C1=Cc2ccc(C(=O)N3CC(NCc4ccccc4)C3)cc2N=C(N)C1 [Example 17, 2-Amino-8-[3-(benzylamino)azetidine-1-carbonyl]-N,N-dipropyl-3H-1-benzazepine-4-carboxamide] | 17000 | 18 |
